SMILES strings stand for the structures.

The test system of the test is Pseudomonas aeruginosa PAO1. The test is described as follows: MBEC assay, biofilm formation of P. aeruginosa PAO1. The class given is cell-based. The conditions noted are these: compound concentration 100 μM, class symbols. The procedure, abridged:
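Peg-lid biofilms were grown 24 h at 35±2 °C, 110 rpm, from inoculum diluted to ~6.0×10^5 cells per mL in TSB, with compound at 10 μM or 100 μM final (1% DMSO) in 1% Tween 80/CAMHB. Pegs were rinsed, then sonicated 30 min into recovery medium; survivors were spot-plated, and recovery plates were read visually after 24 h; triplicates.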
As to `CCCCOCCOCC(=O)Nc1ccc(F)cc1C(F)(F)F` [Example 120, 2-(2-butoxyethoxy)-N-(4-fluoro-2-(trifluoromethyl)phenyl)acetamide], the inhibition at 100 µM fell in the range of 20 to 50%. Turning to `CCCCOCCOCC(=O)N[C@@H](C)c1ccccc1` [Example 121, (S)-2-(2-butoxyethoxy)-N-(1-phenylethyl)acetamide], the inhibition at 100 µM was < 20%. `CCCCOCCOCC(=O)Nc1cc(C)nn1C` [Example 122, 2-(2-butoxyethoxy)-N-(1,3-dimethylpyrazol-5-yl)acetamide]: the inhibition at 100 µM was < 20%. The figure for `CCCCOCCOCC(=O)Nc1cc(C)ns1` [Example 123, 2-(2-butoxyethoxy)-N-(3-methylisothiazol-5-yl)acetamide] is < 20%; for `CCCCOCCOCC(=O)Nc1cc(-c2ccccc2)nn1C` [Example 124, 2-(2-butoxyethoxy)-N-(1-methyl-3-phenylpyrazol-5-yl)acetamide] it is 20 to 50%; for `COCCOCCOCC(=O)N(C)c1ccc(F)cc1` [Example 125, N-(4-fluorophenyl)-2-(2-(2-methoxyethoxy)ethoxy)-N-methylacetamide] it is < 20%. As to `COCCOCCOCC(=O)Nc1ccc(F)cc1C(F)(F)F` [Example 126, N-(4-fluoro-2-(trifluoromethyl)phenyl)-2-(2-(2-methoxyethoxy)ethoxy)acetamide], the inhibition at 100 µM was < 20%.

On to `COCCOCCOCC(=O)N[C@@H](C)c1ccccc1` [Example 127, (S)-2-(2-(2-methoxyethoxy)ethoxy)-N-(1-phenylethyl)acetamide], for which the inhibition at 100 µM was < 20%. With `COCCOCCOCC(=O)Nc1cc(C)nn1C` [Example 128, N-(1,3-dimethylpyrazol-5-yl)-2-(2-(2-methoxyethoxy)ethoxy)acetamide] the figure was < 20%. For the compound `COCCOCCOCC(=O)Nc1cc(C)ns1` [Example 129, 2-(2-(2-methoxyethoxy)ethoxy)-N-(3-methylisothiazol-5-yl)acetamide], the inhibition at 100 µM was < 20%. With `CCCCCCCCCCCC(=O)N1CCCC(C(N)=O)C1` (centres unmarked) [Example 130, 1-dodecanoylpiperidine-3-carboxamide] the figure was > 50%; with `CCCCCCCCCCCC(=O)N1CCC(C(N)=O)CC1` [Example 131, 1-dodecanoylpiperidine-4-carboxamide], 20 to 50%. The figure for `CCCCCCCCCCCC(=O)N1CCCC(C(=O)NC)C1` (centres unmarked) [Example 132, 1-dodecanoyl-N-methylpiperidine-3-carboxamide] is > 50%; for `CCCCCCCCCCCC(=O)N1CCCC(C(=O)NCC)C1` (centres unmarked) [Example 133, 1-dodecanoyl-N-ethylpiperidine-3-carboxamide] it is > 50%; for `CCCCCCCCCCCC(=O)N1CCCC(C(=O)NCC(C)C)C1` (centres unmarked) [Example 134, 1-dodecanoyl-N-isobutylpiperidine-3-carboxamide] it is 20 to 50%.

With `CCCCCCCCCC(=O)N1CCCC(C(=O)N(CC)CC)C1` (centres unmarked) [Example 135, 1-decanoyl-N,N-diethylpiperidine-3-carboxamide], the inhibition at 100 µM is > 50%. With `CCCCCCCCCCCC(=O)N1CCCC(C(=O)N2CCCC2)C1` (centres unmarked) [Example 136, 1-(3-(pyrrolidine-1-carbonyl)piperidin-1-yl)dodecan-1-one] the figure was < 20%; with `CCCCCCCCOCCC(=O)N1CCCC(C(=O)N(CC)CC)C1` (centres unmarked) [Example 137, N,N-diethyl-1-(3-(octyloxy)propanoyl)piperidine-3-carboxamide], 20 to 50%.

For the compound `CCCCCCCN(C)CCCC(=O)N1CCCC(C(=O)N(CC)CC)C1` (centres unmarked) [Example 138, N,N-diethyl-1-(4-(heptyl(methyl)amino)butanoyl)piperidine-3-carboxamide], the inhibition at 100 µM was < 20%.

Consider `CCN(CC)C(=O)C1CCCN(C(=O)CCCCCCN(C)CCN(C)C)C1` (centres unmarked) [Example 139, 1-(7-((2-(dimethylamino)ethyl)(methyl)amino)heptanoyl)-N,N-diethylpiperidine-3-carboxamide], for which the inhibition at 100 µM is < 20%. As to `CCN(CC)C(=O)C1CCCN(C(=O)CCCCCCN2CCN(C)CC2)C1` (centres unmarked) [Example 140, N,N-diethyl-1-(7-(4-methylpiperazin-1-yl)heptanoyl)piperidine-3-carboxamide], the inhibition at 100 µM was < 20%. Take `CCN(CC)C(=O)C1CCCN(C(=O)CCCCCCCCCCCSC)C1` (centres unmarked) [Example 141, N,N-diethyl-1-(12-(methylthio)dodecanoyl)piperidine-3-carboxamide]: the inhibition at 100 µM is > 50%. The figure for `CCN(CC)C(=O)C1CCCN(C(=O)CCCCCCCCCCCS(C)(=O)=O)C1` (centres unmarked) [Example 142, N,N-diethyl-1-(12-(methylsulfonyl)dodecanoyl)piperidine-3-carboxamide] is 20 to 50%.

Consider `CCN(CC)C(=O)C1CCCN(C(=O)CCCCCCCCCNS(C)(=O)=O)C1` (centres unmarked) [Example 143, N,N-diethyl-1-(10-(methylsulfonamido)decanoyl)piperidine-3-carboxamide], for which the inhibition at 100 µM lay within 20 to 50%.

On to `CCCCCCCCNC(=O)CC(=O)N1CCCC(C(=O)N(CC)CC)C1` (centres unmarked) [Example 144, N,N-diethyl-1-(3-(octylamino)-3-oxopropanoyl)piperidine-3-carboxamide], for which the inhibition at 100 µM was 20 to 50%. With `CCCCCCCCCCCC(=O)N1CCC(C(N)=O)C1` (centres unmarked) [Example 145, 1-dodecanoylpyrrolidine-3-carboxamide] the figure was > 50%; with `CCCCCCCCCCCC(=O)N1CCC(C(=O)NC)C1` (centres unmarked) [Example 146, 1-dodecanoyl-N-methylpyrrolidine-3-carboxamide], > 50%; with `CCCCCCCCCCCC(=O)N1CCC(C(=O)N(C)C)C1` (centres unmarked) [Example 147, 1-dodecanoyl-N,N-dimethylpyrrolidine-3-carboxamide], > 50%. Turning to `CCCCCCCCCCCC(=O)N1CCC(C(=O)N(CC)CC)C1` (centres unmarked) [Example 148, 1-dodecanoyl-N,N-diethylpyrrolidine-3-carboxamide], the inhibition at 100 µM is > 50%.

Consider `CCCCCCCCCCCC(=O)N1CCC(C(=O)N2CCCC2)C1` (centres unmarked) [Example 149, 1-(3-(pyrrolidine-1-carbonyl)pyrrolidin-1-yl)dodecan-1-one], for which the inhibition at 100 µM was > 50%.

As to `CCCCCCCCCCCC(=O)N1CCC(C(=O)N(C(C)C)C(C)C)C1` (centres unmarked) [Example 150, 1-dodecanoyl-N,N-diisopropylpyrrolidine-3-carboxamide], the inhibition at 100 µM was > 50%. With `CCCCCCCCCCCC(=O)N1CCC(C(=O)Nc2ccccc2)C1` (centres unmarked) [Example 151, 1-dodecanoyl-N-phenylpyrrolidine-3-carboxamide] the figure was 20 to 50%; with `CCCCCCCCCCCC(=O)N1CCC(C(=O)Nc2ccc(F)cc2)C1` (centres unmarked) [Example 152, 1-dodecanoyl-N-(4-fluorophenyl)pyrrolidine-3-carboxamide], 20 to 50%. With `CCCCCCCCCCCC(=O)N1CCC(C(=O)Nc2cc(C)nn2C)C1` (centres unmarked) [Example 153, N-(1,3-dimethylpyrazol-5-yl)-1-dodecanoylpyrrolidine-3-carboxamide] the figure was > 50%; with `CCCCCCCCCCCC(=O)N1CCC(C(=O)Nc2cc(C(C)(C)C)nn2C)C1` (centres unmarked) [Example 154, N-(3-tert-butyl-1-methylpyrazol-5-yl)-1-dodecanoylpyrrolidine-3-carboxamide], 20 to 50%.

By inhibition is commonly meant the percentage by which the read-out fell short of the control. Higher therefore signals a response far below the control.

The values above are taken from patent US20090192192A1, “INHIBITORS OF BIOFILM FORMATION OF GRAM-POSITIVE AND GRAM-NEGATIVE BACTERIA” (priority 2007, published 2009).
